Measured values taken from PubChem BioAssay AID2060884 (Molecular Pharmacology Branch, DTP, NCI, 2025).

Tested on: NCI-H929 complex spheroids, viability % test/control
Assay: Anticancer human tumor NCI-H929 cell line growth inhibition [RAS];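 also: compound exposure lasted seven days before viability was read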;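 as to viability, T/C: 100% = DMSO vehicle control viability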
Conditions: for IC50: curve of first compound; for viability, T/C: stronger effect = lower value
In short: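 Tumour cells grown as complex spheroids with HUVEC endothelial cells and mesenchymal stem cells, treated with RAS pathway inhibitor combinations. Each agent spans half-log steps from near clinical Cmax, or 10 microM where Cmax is unknown.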

Question: `CCc1c2c(nc3ccc(O)cc13)-c1cc3c(c(=O)n1C2)COC(=O)[C@]3(O)CC` + CCn1c(-c2cc(N3CCN(C)CC3)cnc2C(C)OC)c2c3cc(ccc31)-c1csc(n1)CC(NC(=O)C1CC1C)C(=O)N1CCCC(N1)C(=O)OCC(C)(C)C2 was tested. Which IC50 (second compound 0.000949 µM) did it give?
Answer: 1.88 nM

Question: What about the IC50 (second compound 0.003 µM) of the same compound?
Answer: 2.18 nM

Question: And the IC50 (second compound 0.00949 µM)?
Answer: 2 nM

Question: And the IC50 (second compound 0.03 µM)?
Answer: < 0.949 nM

Question: What about the IC50 (second compound 0.0949 µM) of the same compound?
Answer: < 0.949 nM

Question: And the IC50 (second compound 0.3 µM)?
Answer: < 0.949 nM

Question: And the viability, T/C (second compound 0.000949 µM, first compound 0.000949 µM)?
Answer: 108%

Question: And the viability, T/C (second compound 0.000949 µM, first compound 0.003 µM)?
Answer: 10.3%

Question: What about the viability, T/C (second compound 0.000949 µM, first compound 0.00949 µM) of the same compound?
Answer: 1.4%

Question: And the viability, T/C (second compound 0.000949 µM, first compound 0.03 µM)?
Answer: 2.14%

Question: And the viability, T/C (second compound 0.000949 µM, first compound 0.0949 µM)?
Answer: 0.7%

Question: What about the viability, T/C (second compound 0.000949 µM, first compound 0.3 µM) of the same compound?
Answer: 0.99%

Question: And the viability, T/C (second compound 0.003 µM, first compound 0.000949 µM)?
Answer: 103%

Question: And the viability, T/C (second compound 0.003 µM, first compound 0.003 µM)?
Answer: 29.6%

Question: And the viability, T/C (second compound 0.003 µM, first compound 0.00949 µM)?
Answer: 1.69%

Question: And the viability, T/C (second compound 0.003 µM, first compound 0.03 µM)?
Answer: 1.32%

Question: What about the viability, T/C (second compound 0.003 µM, first compound 0.0949 µM) of the same compound?
Answer: 1.58%

Question: And the viability, T/C (second compound 0.003 µM, first compound 0.3 µM)?
Answer: 1.28%

Question: And the viability, T/C (second compound 0.00949 µM, first compound 0.000949 µM)?
Answer: 114%

Question: What about the viability, T/C (second compound 0.00949 µM, first compound 0.003 µM) of the same compound?
Answer: 15.1%

Question: What about the viability, T/C (second compound 0.00949 µM, first compound 0.00949 µM) of the same compound?
Answer: 1.72%

Question: What about the viability, T/C (second compound 0.00949 µM, first compound 0.03 µM) of the same compound?
Answer: 1.61%

Question: What about the viability, T/C (second compound 0.00949 µM, first compound 0.0949 µM) of the same compound?
Answer: 1.9%

Question: What about the viability, T/C (second compound 0.00949 µM, first compound 0.3 µM) of the same compound?
Answer: 0.54%

Question: What about the viability, T/C (second compound 0.03 µM, first compound 0.000949 µM) of the same compound?
Answer: 19.6%

Question: And the viability, T/C (second compound 0.03 µM, first compound 0.003 µM)?
Answer: 2.7%

Question: What about the viability, T/C (second compound 0.03 µM, first compound 0.00949 µM) of the same compound?
Answer: 1.2%

Question: And the viability, T/C (second compound 0.03 µM, first compound 0.03 µM)?
Answer: 1.06%

Question: What about the viability, T/C (second compound 0.03 µM, first compound 0.0949 µM) of the same compound?
Answer: 1.1%

Question: What about the viability, T/C (second compound 0.03 µM, first compound 0.3 µM) of the same compound?
Answer: 0.6%

Question: What about the viability, T/C (second compound 0.0949 µM, first compound 0.000949 µM) of the same compound?
Answer: 4.5%

Question: What about the viability, T/C (second compound 0.0949 µM, first compound 0.003 µM) of the same compound?
Answer: 1.29%

Question: What about the viability, T/C (second compound 0.0949 µM, first compound 0.00949 µM) of the same compound?
Answer: 1.45%

Question: And the viability, T/C (second compound 0.0949 µM, first compound 0.03 µM)?
Answer: 0.94%

Question: And the viability, T/C (second compound 0.0949 µM, first compound 0.0949 µM)?
Answer: 1.04%

Question: And the viability, T/C (second compound 0.0949 µM, first compound 0.3 µM)?
Answer: 0.39%

Question: And the viability, T/C (second compound 0.3 µM, first compound 0.000949 µM)?
Answer: 2.56%

Question: And the viability, T/C (second compound 0.3 µM, first compound 0.003 µM)?
Answer: 1.55%

Question: What about the viability, T/C (second compound 0.3 µM, first compound 0.00949 µM) of the same compound?
Answer: 0.57%

Question: What about the viability, T/C (second compound 0.3 µM, first compound 0.03 µM) of the same compound?
Answer: 0.84%

Question: And the viability, T/C (second compound 0.3 µM, first compound 0.0949 µM)?
Answer: 1.38%

Question: What about the viability, T/C (second compound 0.3 µM, first compound 0.3 µM) of the same compound?
Answer: 0.4%

Question: With `CCN1CCN(Cc2ccc(Nc3ncc(F)c(-c4cc(F)c5nc(C)n(C(C)C)c5c4)n3)nc2)CC1` + C=CC(=O)N1CCN(c2nc(OCC3CCCN3C)nc3c(F)c(-c4nc(N)cc(C)c4C(F)(F)F)c(Cl)cc23)C(C)C1 as the compound, how does the IC50 (second compound 0.00316 µM) read?
Answer: > 1000 nM

Question: And the IC50 (second compound 0.01 µM)?
Answer: > 1000 nM

Question: What about the IC50 (second compound 0.0316 µM) of the same compound?
Answer: > 1000 nM

Question: And the IC50 (second compound 0.1 µM)?
Answer: > 1000 nM

Question: And the IC50 (second compound 0.316 µM)?
Answer: > 1000 nM

Question: What about the IC50 (second compound 1 µM) of the same compound?
Answer: > 1000 nM

Question: And the viability, T/C (second compound 0.00316 µM, first compound 0.00316 µM)?
Answer: 99.6%

Question: And the viability, T/C (second compound 0.00316 µM, first compound 0.01 µM)?
Answer: 97.4%

Question: And the viability, T/C (second compound 0.00316 µM, first compound 0.0316 µM)?
Answer: 108%

Question: And the viability, T/C (second compound 0.00316 µM, first compound 0.1 µM)?
Answer: 103%

Question: What about the viability, T/C (second compound 0.00316 µM, first compound 0.316 µM) of the same compound?
Answer: 117%

Question: What about the viability, T/C (second compound 0.00316 µM, first compound 1 µM) of the same compound?
Answer: 107%

Question: And the viability, T/C (second compound 0.01 µM, first compound 0.00316 µM)?
Answer: 100%

Question: And the viability, T/C (second compound 0.01 µM, first compound 0.01 µM)?
Answer: 105%

Question: And the viability, T/C (second compound 0.01 µM, first compound 0.0316 µM)?
Answer: 105%

Question: What about the viability, T/C (second compound 0.01 µM, first compound 0.1 µM) of the same compound?
Answer: 109%

Question: And the viability, T/C (second compound 0.01 µM, first compound 0.316 µM)?
Answer: 118%

Question: What about the viability, T/C (second compound 0.01 µM, first compound 1 µM) of the same compound?
Answer: 115%

Question: What about the viability, T/C (second compound 0.0316 µM, first compound 0.00316 µM) of the same compound?
Answer: 102%

Question: And the viability, T/C (second compound 0.0316 µM, first compound 0.01 µM)?
Answer: 103%

Question: And the viability, T/C (second compound 0.0316 µM, first compound 0.0316 µM)?
Answer: 112%

Question: What about the viability, T/C (second compound 0.0316 µM, first compound 0.1 µM) of the same compound?
Answer: 109%

Question: And the viability, T/C (second compound 0.0316 µM, first compound 0.316 µM)?
Answer: 119%

Question: And the viability, T/C (second compound 0.0316 µM, first compound 1 µM)?
Answer: 113%

Question: What about the viability, T/C (second compound 0.1 µM, first compound 0.00316 µM) of the same compound?
Answer: 95.8%

Question: And the viability, T/C (second compound 0.1 µM, first compound 0.01 µM)?
Answer: 105%

Question: What about the viability, T/C (second compound 0.1 µM, first compound 0.0316 µM) of the same compound?
Answer: 108%

Question: What about the viability, T/C (second compound 0.1 µM, first compound 0.1 µM) of the same compound?
Answer: 112%

Question: What about the viability, T/C (second compound 0.1 µM, first compound 0.316 µM) of the same compound?
Answer: 119%

Question: What about the viability, T/C (second compound 0.1 µM, first compound 1 µM) of the same compound?
Answer: 111%

Question: What about the viability, T/C (second compound 0.316 µM, first compound 0.00316 µM) of the same compound?
Answer: 102%

Question: And the viability, T/C (second compound 0.316 µM, first compound 0.01 µM)?
Answer: 105%

Question: And the viability, T/C (second compound 0.316 µM, first compound 0.0316 µM)?
Answer: 113%

Question: What about the viability, T/C (second compound 0.316 µM, first compound 0.1 µM) of the same compound?
Answer: 113%

Question: And the viability, T/C (second compound 0.316 µM, first compound 0.316 µM)?
Answer: 119%

Question: And the viability, T/C (second compound 0.316 µM, first compound 1 µM)?
Answer: 115%

Question: And the viability, T/C (second compound 1 µM, first compound 0.00316 µM)?
Answer: 108%

Question: And the viability, T/C (second compound 1 µM, first compound 0.01 µM)?
Answer: 111%

Question: And the viability, T/C (second compound 1 µM, first compound 0.0316 µM)?
Answer: 112%

Question: What about the viability, T/C (second compound 1 µM, first compound 0.1 µM) of the same compound?
Answer: 114%

Question: And the viability, T/C (second compound 1 µM, first compound 0.316 µM)?
Answer: 120%

Question: And the viability, T/C (second compound 1 µM, first compound 1 µM)?
Answer: 101%
